From EP0536177B1, “THROMBIN INHIBITORS BASED ON THE AMINO ACID SEQUENCE OF HIRUDIN” (MAJESTY (HER) IN RIGHT OF CANADA as represented by THE …, priority 1990, dated 1991)
Where no end group is shown, it is not given here.

Assays:
bovine α-thrombin = target: T1, bovine α-thrombin (Bos taurus, UniProt P00735); experiment: Amidolytic (fluorogenic) assay of thrombin activity, hydrolysis of Tosyl-Gly-Pro-Arg-AMC; assay type: biochemical; conditions: mean of three determinations ± SEM, ni: not inhibited
T1 construct: the enzyme (human or bovine α-thrombin 0.4 nM)

human α-thrombin = target: T2, human α-thrombin (Homo sapiens, UniProt P00734); experiment: as above; assay type: biochemical; conditions: mean of three determinations ± SEM, ni: not inhibited
T2 construct: the enzyme (human or bovine α-thrombin 0.4 nM)
Description: Thrombin-catalyzed hydrolysis of Tos-Gly-Pro-Arg-pNA was monitored at 405 nm on a Varian Cary 2000 double beam spectrophotometer using substrate concentrations of 2.5, 3.5, 5 and 10 µM in a final volume of 1mL. The hydrolytic reactions were performed at 25°C in 0.1 M Tris-HCl buffer, pH 7.8, containing 0.1 M NaCl and 0.1% PEG 6000. The reactions were initiated by addition of the substrate dissolved in 0.1 M Tris-HCl buffer, pH 7.8 to a preincubated solution of enzyme (0.4 or 0.04 nM) and variable concentrations of inhibitor dissolved in the same buffer. Initial velocities were recorded and Ki values were determined graphically by weighted linear regression of Dixon plots in the case of competitive inhibition, or by the method of Baici (Baici, 1981) for hyperbolic inhibition. Fluorogenic assays were conducted using the same conditions and instrument as above operating in the fluorescence mode in the Ratio (λex=383 nm, λem=455 nm). Fluorescence intensities were calibrated with 7-amino-4-methyl coumarin solution of known concentration. The specificity of the synthetic peptides of the present invention for human α-thrombin may also be determined by comparing their relative inhibitory activities towards both human α-thrombin and bovine α-thrombin and trypsin by comparing K1 values obtained in the amidolytic assay of thrombin activity.

rats = experiment: Antithrombotic activity in the arteriovenous shunt model; assay type: in vivo, rat; conditions: dose which causes a prolongation of the time until occlusion of the shunt by 15 min, 5 min after intravenous administration
Description: The rat anaesthetized with urethane is fixed in supine position on a temperature-controlled heating plate. The right carotid artery and the left jugular vein are catheterized with short polyethylene catheters (Portex, PE 50). The catheters are filled with physiological saline solution and clamped. The two ends of the catheters are connected with a 2-cm glass capillary (internal diameter 1.0 mm) acting as a thrombogenic surface, 5 min after intravenous administration of the test substance or its solvent (control) the clamps occluding the arteriovenous shunt are opened. The blood flowing through the shunt leads to a rapid rise in temperature of the glass capillary from room temperature to body temperature. The temperature of the capillary serves as an indicator for the patency of the shunt. The temperature is measured by means of a NiCrNi-thermo-couple.
Antithrombotic effect of P79 compared to recombinant hirudin in the arteriovenous shunt model in rats 5 min. after intravenous administration (n - number of animals used. Results are shown in Table II below. TABLE II

[1] = Stability of polypeptides in plasma against proteolysis; assay type: in vitro ADME; conditions: incubation at 37°C in reconstituted normal human plasma with thromboplastin and calcium chloride, pH 7.8 (Figure 3)
Description: The peptides of this invention were evaluated for in vitro plasma stability against proteolysis.
600 µg of peptide was mixed with 250 µl of reconstituted normal human plasma, 250 µl of thromboplastin, 600 µg of calcium chloride and 50 mM NaHPO4 buffer ph 7.8 to a final volume of 900 µl.
The mixture was incubated at 37°C and 100 µl aliquots were removed at designated time intervals. 20 µl of 10% trichloroacetic acid was added to individual aliquot and centrifuged at 12 X K for 10 minutes. The supernatant was injected on a C18 analytical column and chromatographed by standard elution procedure (i.e. at 60% 0.1% TFA/H2O to 0.1 TFA in CH3CN).

| proteolysis [1] | Substance | Ki (bovine α-thrombin) [nM] | Ki (human α-thrombin) [nM] | ED15 (rats) [mg/kg] |
| --- | --- | --- | --- | --- |
| – | TPKPQSHNDGD [P51, hirudin^45-55] | 720 ± 130 | 110 ± 3 | – |
| minimal or no proteolysis | [D-Phe^45,Arg^47,ψ(COCH2)CH2CH2CO^47]hirudin^45-65 [P79] | – | – | 0.42 |
